Entries after “also recorded” stand apart in the source; their conditions may differ. Where a SMILES comes first, the peptide text is derived from it. Bridges are numbered along the chain shown (N, C = ends). [ ]: non-standard residue; d: D form. AllylGly = C=CC[C@H](N)C(=O)O
System: ileum
Test: Ileum relaxation assay ex vivo
Parameters: species or system rat
Conditions: 10^−11 to 10^−5 M, after contraction with carbachol
Protocol: The functional ileum bioassay was carried out as described in detail elsewhere. (Van der Poorten, O., Van Den Hauwe, R., Eiselt, E., Betti, C., Guillemyn, K., Chung, N. N., Hall, F., Bihel, F., Schiller, P. W., Tourwé, D., Sarret, P., Gendron, L, . . . Ballet, S. (2017). X-Space Screening of Dermorphin-Based Tetrapeptides through Use of Constrained Arylazepinone and Quinolinone Scaffolds. ACS medicinal chemistry letters, 8(11), 1177-1182) Briefly, rats were euthanized, and 2 cm ileum segments were dissected out before removal of extraneous fat and connective tissue.
The ileum was then mounted under 0.5-g tension in a 10 mL organ bath containing warmed (37° C.) and oxygenated (95% O2, 5% CO2) Krebs solution (6.9 g/L NaCl, 0.145 g/L MgSO4, 2.1 g/L NaHCO3, 0.35 g/L KCl, 0.165 g/L KH2PO4, 1.98 g/L dextrose and 0.28 g/L CaCl2)). […] Contractions of the muscle were recorded via an isometric force transducer (159901A, Radnoti, Monrovia, CA, USA). […]
Each concentration of the compounds tested were followed by 2×15-min washout periods in Krebs solution to allow full relaxation. Dose-response curves were obtained with NT (8-13) (10^−11 to 10^−6) as standard for each ileum and for compound 34(10^−11 to 10^−5) and IC50 values were determined. […]
Data are expressed as mean±standard errors of the mean (SEM). […]

In the case of `CC(C)C[C@H](NC(=O)[C@H](Cc1ccc(O)cc1)NC(=O)[C@@H]1CC=CC[C@H](N)C(=O)N[C@@H](CCCCN)C(=O)N[C@@H](CCCCN)C(=O)N1)C(=O)O` [compound 34, c[G(All)KKG(All)]YL] (H-[AllylGly]KK[AllylGly]YL-OH; staple 1-4), the Ileum relaxation is reported as “doesn't impact gut motility; also recorded: No ileum”.
